Reference: US12679836B2, “4H-pyrrolo[3,2-c]pyridin-4-one compounds” (Bayer Aktiengesellschaft, priority 2019, dated 2026)
Where two headings read alike, the source gives them in different places.

Experiments:
[1] = target: T1, EGFR with insertion of SVD between D770 and N771 (EGFR ins SVD) (Homo sapiens, UniProt P00533, DUP768-770); assay: Exon20-Mutant-EGFR(D770_N771insSVD) kinase assay (TR-FRET); format: biochemical; conditions: 2 mM ATP, several values per example where printed
T1 construct: made in house; host or cells: Sf9 insect cells (baculovirus)
T1 sequence (P00533 with tags, fused parts or gaps DUP768-770): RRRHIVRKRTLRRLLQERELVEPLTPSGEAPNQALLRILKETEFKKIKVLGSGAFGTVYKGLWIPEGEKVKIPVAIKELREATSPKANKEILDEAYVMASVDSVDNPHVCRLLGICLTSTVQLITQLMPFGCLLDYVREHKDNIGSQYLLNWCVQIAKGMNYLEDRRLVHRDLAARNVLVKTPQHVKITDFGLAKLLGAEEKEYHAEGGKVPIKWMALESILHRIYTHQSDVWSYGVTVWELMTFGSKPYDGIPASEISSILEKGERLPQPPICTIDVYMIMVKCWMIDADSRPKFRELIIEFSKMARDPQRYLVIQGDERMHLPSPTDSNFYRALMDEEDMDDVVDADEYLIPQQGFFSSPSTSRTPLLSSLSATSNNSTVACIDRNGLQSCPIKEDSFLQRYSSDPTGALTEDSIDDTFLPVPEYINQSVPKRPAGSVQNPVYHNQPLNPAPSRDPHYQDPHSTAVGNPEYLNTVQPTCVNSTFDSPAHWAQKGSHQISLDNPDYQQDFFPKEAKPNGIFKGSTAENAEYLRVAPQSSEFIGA

[2] = target: T2, Bub1 (Homo sapiens, UniProt O43683); assay: Bub1 TR-FRET high ATP kinase assay; format: biochemical; conditions: 2 mM ATP
T2 construct: catalytic domain of human Bub1 (amino acids 704-1085); His6 (N); made in house; host or cells: Hi5 insect cells
T2 sequence (O43683 704-1085): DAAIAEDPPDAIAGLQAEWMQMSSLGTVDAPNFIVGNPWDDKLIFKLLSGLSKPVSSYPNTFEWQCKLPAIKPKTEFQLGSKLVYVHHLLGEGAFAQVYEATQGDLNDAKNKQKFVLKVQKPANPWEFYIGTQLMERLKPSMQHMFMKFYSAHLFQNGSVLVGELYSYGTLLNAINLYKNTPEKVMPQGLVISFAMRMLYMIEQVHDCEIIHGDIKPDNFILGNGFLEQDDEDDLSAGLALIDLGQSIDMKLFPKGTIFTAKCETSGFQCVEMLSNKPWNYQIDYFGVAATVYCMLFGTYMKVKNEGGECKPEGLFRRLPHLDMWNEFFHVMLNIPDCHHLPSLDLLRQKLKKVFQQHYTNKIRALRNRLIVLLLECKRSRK
Text: Bub1 High ATP Kinase Assay
Bub1-inhibitory activity of compounds of the present invention at a high ATP concentration was quantified employing the Bub1 TR-FRET high ATP kinase assay as described in the following paragraphs.
N-terminally His6-tagged recombinant catalytic domain of human Bub1 (amino acids 704-1085), expressed in insect cells (Hi5) and purified by Ni-NTA affinity chromatography and subsequent size exclusion chromatography, was used as enzyme. As substrate for the kinase reaction the biotinylated peptide biotin-Ahx-[…]—SEQ ID 7 (C-terminus in amid form) was used which can be purchased e.g. form the company Biosyntan (Berlin, Germany).

[3] = target: Ba/F3-EGFR-insSVD cells (Homo sapiens, UniProt P00533, DUP768-770, cells depend on it); assay: Ba/F3 cell survival assay (Cell Titer-Glo), EGFR-insSVD; format: cell-based; conditions: without IL-3, with 10 ng/mL EGF, 48 h; read-out: BA/F3 (insSVD) IC50
Chain of Ba/F3-EGFR-insSVD cells (P00533 with tags, fused parts or gaps DUP768-770): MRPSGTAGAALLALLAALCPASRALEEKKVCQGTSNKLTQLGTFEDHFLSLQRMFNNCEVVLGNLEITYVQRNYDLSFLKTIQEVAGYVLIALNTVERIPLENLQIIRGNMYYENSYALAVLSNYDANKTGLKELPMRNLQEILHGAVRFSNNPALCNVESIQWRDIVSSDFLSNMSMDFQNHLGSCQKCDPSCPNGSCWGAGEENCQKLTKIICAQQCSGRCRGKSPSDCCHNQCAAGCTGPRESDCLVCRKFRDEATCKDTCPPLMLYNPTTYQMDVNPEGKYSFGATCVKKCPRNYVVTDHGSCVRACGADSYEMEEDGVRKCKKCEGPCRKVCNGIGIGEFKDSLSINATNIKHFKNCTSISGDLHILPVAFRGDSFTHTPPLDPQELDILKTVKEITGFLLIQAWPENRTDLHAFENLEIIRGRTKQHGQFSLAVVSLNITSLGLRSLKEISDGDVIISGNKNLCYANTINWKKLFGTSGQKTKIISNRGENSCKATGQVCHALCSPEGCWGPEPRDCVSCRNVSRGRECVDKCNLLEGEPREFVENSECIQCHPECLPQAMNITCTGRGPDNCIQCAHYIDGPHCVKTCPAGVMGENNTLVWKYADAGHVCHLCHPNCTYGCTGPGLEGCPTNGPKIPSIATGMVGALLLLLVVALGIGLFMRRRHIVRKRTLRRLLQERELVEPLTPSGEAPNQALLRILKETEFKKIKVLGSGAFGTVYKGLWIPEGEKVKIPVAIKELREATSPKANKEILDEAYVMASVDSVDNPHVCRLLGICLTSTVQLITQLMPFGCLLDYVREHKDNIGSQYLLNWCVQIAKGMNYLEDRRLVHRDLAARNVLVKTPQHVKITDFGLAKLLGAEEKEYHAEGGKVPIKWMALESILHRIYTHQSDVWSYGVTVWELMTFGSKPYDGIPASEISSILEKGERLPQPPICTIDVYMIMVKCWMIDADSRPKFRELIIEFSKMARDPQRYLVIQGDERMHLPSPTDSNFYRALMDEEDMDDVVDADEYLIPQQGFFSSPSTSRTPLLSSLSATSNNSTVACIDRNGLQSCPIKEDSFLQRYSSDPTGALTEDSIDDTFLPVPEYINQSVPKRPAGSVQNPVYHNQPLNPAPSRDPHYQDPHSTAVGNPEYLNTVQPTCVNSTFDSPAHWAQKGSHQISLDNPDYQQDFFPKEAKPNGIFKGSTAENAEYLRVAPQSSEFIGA
Protocol: (§1) 293T cells from ATCC were transfected with pBABEpuro expression constructs for WT EGFR or EGFR-insSVD and pCL-Eco packaging vector using Fugene-6 transfection reagent from Promega. Plates were incubated at 37° C. for 48 h. Retrovirus was harvested by filtering the media supernatant through a 0.45 μm filter.
(§2) Ba/F3 cells purchased from DSMZ were grown in RPMI+10% FBS+10 ng/mL IL-3 and infected with filtered retroviral supernatant at a 1:2 dilution. Polybrene was added to a concentration of 8 μg/mL, plates were spun for 90 min, and incubated overnight at 37° C. 2 μg/mL puromycin was added to the infected cells 24 h after infection and cells were continually grown in the presence of puromycin and 10 ng/mL IL-3. Following stably expressing Ba/F3 cell lines were generated: Ba/F3-EGFR-WT, Ba/F3-EGFR-insSVD, (Ba/F3-vector-control).
(§3) For cell survival assays, Ba/F3 cells were grown to a density of 1-2 million cells per mL, spun down and resuspended in media without IL-3, and replated at a concentration 200,000-500,000 cells per mL. The cells ectopically expressing WT EGFR or EGFR-insSVD were plated with 10 ng/mL Millipore Culture grade EGF. The cells ectopically expressing pBABEpuro empty vector were plated with 10 ng/mL IL-3. 2 days later, cells were plated in 50 μL in a 384 well plate at a concentration of 4000 cells per well for cells assayed in the absence of IL-3 and 2000 cells per well for cells assayed in the presence of IL-3. 100 nL of compound was added to each well using a 100 nL pin head, and plates were incubated at 37° C. for 48 h.
(§4) Cell viability was measured by adding 20 μL of Cell Titer-Glo Luminescent Cell Viability Reagent diluted 1:3 in PBS. Plates were sealed with Perkin Elmer Top-Seal, inverted several times to mix, and immediately centrifuged at 1000 rpm for 2 min. Plates were incubated in low light conditions for 8-10 min and luminescence was measured.

[4] = target: Ba/F3-EGFR-WT cells (Homo sapiens, UniProt P00533); assay: Ba/F3 cell survival assay (Cell Titer-Glo), WT EGFR; format: cell-based; conditions: without IL-3, with 10 ng/mL EGF, 48 h; read-out: BA/F3 (wild type) IC50
Chain of Ba/F3-EGFR-WT cells (P00533 whole entry, change not shown): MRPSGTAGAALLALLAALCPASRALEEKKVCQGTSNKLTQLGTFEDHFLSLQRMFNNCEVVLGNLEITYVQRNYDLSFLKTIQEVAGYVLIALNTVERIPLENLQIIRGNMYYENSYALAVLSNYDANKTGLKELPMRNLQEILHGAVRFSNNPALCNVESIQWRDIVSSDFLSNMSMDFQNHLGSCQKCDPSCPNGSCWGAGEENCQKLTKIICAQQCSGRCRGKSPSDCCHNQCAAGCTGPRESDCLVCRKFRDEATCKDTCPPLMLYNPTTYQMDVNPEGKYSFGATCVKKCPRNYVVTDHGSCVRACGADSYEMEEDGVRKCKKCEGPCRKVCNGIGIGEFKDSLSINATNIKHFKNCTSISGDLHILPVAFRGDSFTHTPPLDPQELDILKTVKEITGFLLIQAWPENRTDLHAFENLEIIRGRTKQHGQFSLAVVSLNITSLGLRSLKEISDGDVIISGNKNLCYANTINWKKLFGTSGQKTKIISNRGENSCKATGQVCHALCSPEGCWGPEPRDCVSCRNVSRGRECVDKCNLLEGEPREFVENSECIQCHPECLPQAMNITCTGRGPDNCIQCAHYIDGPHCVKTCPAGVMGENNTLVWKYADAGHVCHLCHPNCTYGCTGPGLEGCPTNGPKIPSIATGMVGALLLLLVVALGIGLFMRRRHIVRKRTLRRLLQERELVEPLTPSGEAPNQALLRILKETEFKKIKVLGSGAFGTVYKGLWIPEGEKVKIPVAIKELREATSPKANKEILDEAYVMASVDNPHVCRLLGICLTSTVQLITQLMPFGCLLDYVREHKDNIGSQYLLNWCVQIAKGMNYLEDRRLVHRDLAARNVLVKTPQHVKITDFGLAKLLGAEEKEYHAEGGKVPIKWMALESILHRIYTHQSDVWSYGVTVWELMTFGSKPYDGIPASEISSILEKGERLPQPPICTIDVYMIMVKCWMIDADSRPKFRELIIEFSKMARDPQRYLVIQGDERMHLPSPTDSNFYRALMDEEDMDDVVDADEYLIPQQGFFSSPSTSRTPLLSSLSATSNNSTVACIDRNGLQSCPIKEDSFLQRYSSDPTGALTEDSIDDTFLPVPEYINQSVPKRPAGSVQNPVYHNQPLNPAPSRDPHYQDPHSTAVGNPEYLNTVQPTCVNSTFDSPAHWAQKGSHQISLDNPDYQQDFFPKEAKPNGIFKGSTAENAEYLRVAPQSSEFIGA
Protocol: as §1, §2, §3, §4

[5] = Bub1 high ATP (2 mM) IC50 [mol/l]

mutEGFR (D770_N771insSVD) kinase assay IC50 [1] [nM] | IC50 ([2]; read-out: Bub1 high ATP (2 mM) IC50 [mol/l]) [nM] | IC50 [2, 5] [nM] | SMILES | GI50 [3] [nM] | GI50 [4] [nM]
4.99 | > 20000 | – | COc1c(Cl)cccc1Nc1c(-c2ccncc2OC(C)C2CN(C)CCO2)[nH]c2c1C(=O)NCC2 (single isomer, unassigned) [Example 75, 3-(3-chloro-2-methoxyanilino)-2-[3-({1-[-4-methylmorpholin-2-yl]ethyl}oxy)pyridin-4-yl]-1,5,6,7-tetrahydro-4H-pyrrolo[3,2-c]pyridin-4-one] | 571 | 3900
0.113 | – | 11400 | COc1c(Cl)cc(F)cc1Nc1c(-c2ccncc2OCC2COCCO2)[nH]c2c1C(=O)NCC2 (centres unmarked) [Example 19, 3-(3-chloro-5-fluoro-2-methoxyanilino)-2-(3-{[1,4-dioxan-2-yl]methoxy}pyridin-4-yl)-1,5,6,7-tetrahydro-4H-pyrrolo[3,2-c]pyridin-4-one] | 29.1 | 532
0.169 | – | > 20000 | COc1c(F)cccc1Nc1c(-c2ccncc2OC[C@@H]2CN(CC(F)(F)F)CCO2)[nH]c2c1C(=O)NCC2 [Example 23, 3-(3-fluoro-2-methoxyanilino)-2-(3-{[(2S)-4-(2,2,2-trifluoroethyl)morpholin-2-yl]methoxy}pyridin-4-yl)-1,5,6,7-tetrahydro-4H-pyrrolo[3,2-c]pyridin-4-one] | 71 | 648
0.261 | – | 1940 | COc1c(Cl)cccc1Nc1c(-c2ccncc2OCCC2COCCO2)[nH]c2c1C(=O)NCC2 (centres unmarked) [Example 24, 3-(3-chloro-2-methoxyanilino)-2-{3-[2-(4-dioxan-2-yl)ethoxy]pyridin-4-yl}-1,5,6,7-tetrahydro-4H-pyrrolo[3,2-c]pyridin-4-one] | 34.6 | 444
0.118 | – | > 20000 | COc1c(Cl)cc(F)cc1Nc1c(-c2ccncc2OC[C@@H]2CN(C)CCO2)[nH]c2c1C(=O)NCC2 [Example 27, 3-(3-chloro-5-fluoro-2-methoxyanilino)-2-(3-{[(2S)-4-methylmorpholin-2-yl]methoxy}pyridin-4-yl)-1,5,6,7-tetrahydro-4H-pyrrolo[3,2-c]pyridin-4-one] | 16.9 | 502
0.119 | – | > 5710 | Cc1c(F)cccc1Nc1c(-c2ccncc2OCC2COC(C)(C)CO2)[nH]c2c1C(=O)NCC2 (centres unmarked) [Example 38, 2-[3-[(5,5-dimethyl-1,4-dioxan-2-yl)methoxy]-4-pyridyl]-3-(3-fluoro-2-methyl-anilino)-1,5,6,7-tetrahydropyrrolo[3,2-c]pyridin-4-one] | 29.3 | 419

Continued, molecule first:

SMILES | mutEGFR (D770_N771insSVD) kinase assay IC50 [1] [nM] | IC50 ([2]; read-out: Bub1 high ATP (2 mM) IC50 [mol/l]) [nM] | IC50 [2, 5] [nM] | GI50 [3] [nM] | GI50 [4] [nM]
COc1c(Cl)cccc1Nc1c(-c2ccncc2OCC2COCCO2)[nH]c2c1C(=O)NCC2 (centres unmarked) [Example 1, 3-(3-chloro-2-methoxyanilino)-2-{3-[(1,4-dioxan-2-yl)methoxy]pyridin-4-yl}-1,5,6,7-tetrahydro-4H-pyrrolo[3,2-c]pyridin-4-one] | 0.159 | – | 3360 | 9.8 | 366
COc1c(F)cccc1Nc1c(-c2ccncc2OCC2COCCO2)[nH]c2c1C(=O)NCC2 (centres unmarked) [Example 4, 2-{3-[(1,4-dioxan-2-yl)methoxy]pyridin-4-yl}-3-(3-fluoro-2-methoxyanilino)-1,5,6,7-tetrahydro-4H-pyrrolo[3,2-c]pyridin-4-one] | 0.256 | – | 11300 | 19.5 | 452
O=C1NCCc2[nH]c(-c3ccncc3OCC3COCCO3)c(Nc3cccc(Cl)c3Cl)c21 (centres unmarked) [Example 7, 3-(2,3-dichloroanilino)-2-{3-[(1,4-dioxan-2-yl)methoxy]pyridin-4-yl}-1,5,6,7-tetrahydro-4H-pyrrolo[3,2-c]pyridin-4-one] | 0.137 | – | 10600 | 18 | 292
Cc1c(Cl)cccc1Nc1c(-c2ccncc2OCC2COCCO2)[nH]c2c1C(=O)NCC2 (centres unmarked) [Example 10, 3-(3-chloro-2-methylanilino)-2-{3-[(1,4-dioxan-2-yl)methoxy]pyridin-4-yl}-1,5,6,7-tetrahydro-4H-pyrrolo[3,2-c]pyridin-4-one] | 0.669 | – | 1780 | 11.1 | 496
COc1c(Cl)cccc1Nc1c(-c2ccncc2OC[C@H]2COCCN2C)[nH]c2c1C(=O)NCC2 [Example 11, 3-(3-chloro-2-methoxyanilino)-2-(3-{[(3R)-4-methylmorpholin-3-yl]methoxy}pyridin-4-yl)-1,5,6,7-tetrahydro-4H-pyrrolo[3,2-c]pyridin-4-one] | 0.286 | – | 4330 | 18.7 | 701
COc1c(F)cccc1Nc1c(-c2ccncc2OCC2CN(C)CCO2)[nH]c2c1C(=O)NCC2 (centres unmarked) [Example 12, 3-(3-fluoro-2-methoxyanilino)-2-{3-[(4-methylmorpholin-2-yl)methoxy]pyridin-4-yl}-1,5,6,7-tetrahydro-4H-pyrrolo[3,2-c]pyridin-4-one] | 0.0794 | – | > 20000 | 22.8 | 574
COc1c(Cl)cccc1Nc1c(-c2ccncc2OCC2CN(C)CCO2)[nH]c2c1C(=O)NCC2 (centres unmarked) [Example 15, 3-(3-chloro-2-methoxyanilino)-2-{3-[(4-methylmorpholin-2-yl)methoxy]pyridin-4-yl}-1,5,6,7-tetrahydro-4H-pyrrolo[3,2-c]pyridin-4-one] | 0.151 | – | > 20000 | 15.3 | 426
COc1c(Cl)cc(F)cc1Nc1c(-c2ccncc2OCC2CN(C)CCO2)[nH]c2c1C(=O)NCC2 (centres unmarked) [Example 18, 3-(3-chloro-5-fluoro-2-methoxyanilino)-2-(3-{[4-methylmorpholin-2-yl]methoxy}pyridin-4-yl)-1,5,6,7-tetrahydro-4H-pyrrolo[3,2-c]pyridin-4-one] | 0.147 | – | > 20000 | 27.9 | 579
COc1c(F)cccc1Nc1c(-c2ccncc2OC[C@@H]2CN(CC(F)F)CCO2)[nH]c2c1C(=O)NCC2 [Example 22, 2-(3-{[(2S)-4-(2,2-difluoroethyl)morpholin-2-yl]methoxy}pyridin-4-yl)-3-(3-fluoro-2-methoxyanilino)-1,5,6,7-tetrahydro-4H-pyrrolo[3,2-c]pyridin-4-one] | 0.153 | – | > 20000 | 41.9 | 544
COc1c(Cl)cc(F)cc1Nc1c(-c2ccncc2OC[C@@H]2CN(CC(F)(F)F)CCO2)[nH]c2c1C(=O)NCC2 [Example 28, 3-(3-chloro-5-fluoro-2-methoxyanilino)-2-(3-{[(2S)-4-(2,2,2-trifluoroethyl)morpholin-2-yl]methoxy}pyridin-4-yl)-1,5,6,7-tetrahydro-4H-pyrrolo[3,2-c]pyridin-4-one] | 0.249 | – | > 20000 | 126 | 1240
COc1c(F)cccc1Nc1c(-c2ccncc2OC[C@H]2COCCN2C)[nH]c2c1C(=O)NCC2 [Example 37, 3-(3-fluoro-2-methoxyanilino)-2-(3-{[(3R)-4-methylmorpholin-3-yl]methoxy}pyridin-4-yl)-1,5,6,7-tetrahydro-4H-pyrrolo[3,2-c]pyridin-4-one] | 0.4 | – | 19000 | 35.7 | 348
